Among the data in patent US9382257B2, “Substituted pyrrolo[2,3-b]pyrazines as serine/threonine kinase inhibitors” (Genentech, Inc., priority 2002, dated 2016) are IC50 values, retold here.

Assay [1] has as its target T1, human ERK-2 (Mitogen Activated Kinase 1) (Homo sapiens, UniProt P28482).
T1 construct: n-terminal 6-His fusion protein in E. coli and corresponding to aa 8-360; 6-His (N); made in house; host or cells: E. coli
Description: ERK-2 Enzymatic Assay (Example 2). The conditions noted are these: Omnia peptide S/T17, 25 μM ATP, read-out: ERK Inhibition IC50. In kind it is biochemical. On the procedure:
Compounds were tested in an enzymatic assay using human ERK-2 (Mitogen Activated Kinase 1), recombinantly expressed as an n-terminal 6-His fusion protein in E. coli and corresponding to aa 8-360. The substrate used was the fluorescent Omnia peptide S/T17 (Invitrogen of Carlsbad, Calif.; Cat. KNZ1171C). Test compounds were diluted in DMSO in 3-fold serial dilutions at 100× final concentrations. […] The assay was run at ambient temperature in a white 384-well polypropylene plate (Nunc, Inc of Naperville, Ill.; Cat. 267462) collecting data every 50 seconds for approximately 30 minutes on an Envision plate reader (PerkinElmer, Inc. of Waltham, Mass.); Excitation 340 nm/Emission 495 nm. The data collected from each well was fit to a straight line and the resulting rates were used to calculate percent of control. Percent of control was plotted against compound concentration and IC50 values were determined using a four-parameter fit. Representative date is in TABLE 2 (infra).

Assay [2] concerns PMA-stimulated P90RSK(Ser380) phosphorylation in HepG2 cells. Description: Cellular P90RSK(Ser380) Phosphorylation Assay (Example 4). In kind it is cell-based. The conditions noted are these: Homo sapiens, 1.5 hour compound incubation, PMA 100 ng/mL, normalized to GAPDH, read-out: RSK Inhibition IC50. On the procedure:
Cellular P90RSK(Ser380) Phosphorylation Assay
Inhibition of PMA-stimulated P90RSK(Ser380) phosphorylation was determined by the following in vitro cellular mechanistic assay, which comprises incubating cells with a compound for 1.5 hours and quantifying fluorescent pP90RSK(Ser380) signal on fixed cells and normalizing to GAPDH signal.
Materials and Methods: HepG2 cells were obtained from ATCC and grown in DMEM supplemented with 10% fetal bovine serum. Cells were plated in 96-well plates at 35,000 cells/well and allowed to attach overnight at 37° C./5% CO2. Diluted compounds were then added at a final concentration of 0.5% DMSO. After 1.5 hour compound incubation, cells were stimulated with the addition of PMA (phorbol 12-myristate 13-acetate) at a final concentration of 100 ng/mL; the PMA stimulation was a 30-minute incubation at 37° C./5% CO2. After the 30-minute PMA stimulation, cells were washed with PBS and fixed in 3.7% formaldehyde in PBS at room temperature for 15-20 minutes. This was followed by another wash in PBS and then permeabilization in 100% MeOH at room temperature for 10-15 minutes. Following the permeabilization incubation, cells were washed in PBS/0.05% Tween-20, followed by a block in Odyssey blocking buffer (LI-COR Biosciences) for at least 1 hour. Antibodies to phosphorylated P90RSK(Ser380) (Cell Signaling #9335, rabbit monoclonal) and GAPDH (Fitzgerald 10R-G109a, mouse monoclonal) were added to the cells and incubated overnight at 4° C. pP90RSK(Ser380) antibody was used at a 1:250 dilution; GAPDH was used at a 1:10,000 dilution. After washing with PBS/0.05% Tween-20, the cells were incubated with fluorescently-labeled secondary antibodies (Anti-rabbit-Alexa Flour680, Invitrogen Cat#A21109; Anti-mouse-IRDye800CW, Rockland Inc. Cat#610-131-121) for 1 hour. Both secondary antibodies were used at a 1:1000 dilution. Cells were then washed and analyzed for fluorescence at both wavelengths using the Odyssey Infrared Imaging System (LI-COR Biosciences). Phosphorylated P90RSK(Ser380) signal was normalized to GAPDH signal. Representative date is in TABLE 2 (infra).

T1 sequence (P28482 8-360): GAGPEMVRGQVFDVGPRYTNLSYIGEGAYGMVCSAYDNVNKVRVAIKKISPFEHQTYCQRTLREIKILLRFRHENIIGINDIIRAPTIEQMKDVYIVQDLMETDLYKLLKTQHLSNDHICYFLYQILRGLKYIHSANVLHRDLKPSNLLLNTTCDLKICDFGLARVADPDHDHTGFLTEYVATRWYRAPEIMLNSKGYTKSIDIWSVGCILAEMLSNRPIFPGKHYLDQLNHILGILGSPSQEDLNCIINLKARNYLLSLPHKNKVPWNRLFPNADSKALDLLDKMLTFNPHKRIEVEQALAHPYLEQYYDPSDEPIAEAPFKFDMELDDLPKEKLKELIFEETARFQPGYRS

`Cc1[nH]ncc1-c1cnc2[nH]cc(-c3cnn(Cc4ccc(F)cc4F)c3)c2n1` [I-1, 7-[1-(2,4-difluoro-benzyl)-1H-pyrazol-4-yl]-2-(5-methyl-1H-pyrazol-4-yl)-5H-pyrrolo[2,3-b]pyrazine]: the IC50 in assay [1] was 0.00123 µM; in assay [2], 0.242 µM.
On the same counts, the results for `Cc1[nH]ncc1-c1cnc2[nH]cc(-c3cnn(Cc4ccc(F)c(Cl)c4)c3)c2n1` [I-2, 7-[1-(3-chloro-4-fluoro-benzyl)-1H-pyrazol-4-yl]-2-(5-methyl-1H-pyrazol-4-yl)-5H-pyrrolo[2,3-b]pyrazine] are 0.00236 µM and 0.276 µM.
On the same counts, the results for `Fc1cccc(Cn2cc(-c3c[nH]c4ncc(-c5cn[nH]c5)nc34)cn2)c1` [I-3, 7-[1-(3-fluoro-benzyl)-1H-pyrazol-4-yl]-2-(1H-pyrazol-4-yl)-5H-pyrrolo[2,3-b]pyrazine] are 0.00275 µM and 0.403 µM.
The matching figures for `Cc1[nH]ncc1-c1cnc2[nH]cc(-c3cnn(Cc4ccccc4C#N)c3)c2n1` [I-4, 2-{4-[2-(5-methyl-1H-pyrazol-4-yl)-5H-pyrrolo[2,3-b]pyrazin-7-yl]-pyrazol-1-ylmethyl}-benzonitrile]: 0.0013 µM and 0.202 µM.
Take `Cc1[nH]ncc1-c1cnc2[nH]cc(-c3cnn(Cc4ccccc4[N+](=O)[O-])c3)c2n1` [I-5, 2-(5-methyl-1H-pyrazol-4-yl)-7-[1-(2-nitro-benzyl)-1H-pyrazol-4-yl]-5H-pyrrolo[2,3-b]pyrazine]: the figures for the half-inhibitory concentration (IC50) in assay [1] and in assay [2] were 0.0015 µM and 0.0972 µM, respectively.
The matching figures for `Cc1[nH]ncc1-c1cnc2[nH]cc(-c3cnn(Cc4c(F)cccc4Cl)c3)c2n1` [I-6, 7-[1-(2-chloro-6-fluoro-benzyl)-1H-pyrazol-4-yl]-2-(5-methyl-1H-pyrazol-4-yl)-5H-pyrrolo[2,3-b]pyrazine]: 0.00184 µM and 0.214 µM.
On the same counts, the results for `COc1ccc(Cn2cc(-c3c[nH]c4ncc(-c5cn[nH]c5C)nc34)cn2)cc1F` [I-7, 7-[1-(3-fluoro-4-methoxy-benzyl)-1H-pyrazol-4-yl]-2-(5-methyl-1H-pyrazol-4-yl)-5H-pyrrolo[2,3-b]pyrazine] are 0.00189 µM and 0.34 µM.
On the same counts, the results for `Cc1[nH]ncc1-c1cnc2[nH]cc(-c3cnn(Cc4ccccc4OC(F)F)c3)c2n1` [I-8, 7-[1-(2-difluoromethoxy-benzyl)-1H-pyrazol-4-yl]-2-(5-methyl-1H-pyrazol-4-yl)-5H-pyrrolo[2,3-b]pyrazine] are 0.0025 µM and 0.191 µM.
As to `Cc1[nH]ncc1-c1cnc2[nH]cc(-c3cnn([C@@H](C)c4ccccc4Cl)c3)c2n1` [I-9, 7-{1-[(S)-1-(2-chloro-phenyl)-ethyl]-1H-pyrazol-4-yl}-2-(5-methyl-1H-pyrazol-4-yl)-5H-pyrrolo[2,3-b]pyrazine], the IC50 in assay [1] came out at 0.0028 µM; in assay [2], 0.299 µM.
On the same counts, the results for `Cc1n[nH]c(C)c1-c1cnc2[nH]cc(-c3cnn(Cc4cccc(F)c4)c3)c2n1` [I-10, 2-(3,5-dimethyl-1H-pyrazol-4-yl)-7-[1-(3-fluoro-benzyl)-1H-pyrazol-4-yl]-5H-pyrrolo[2,3-b]pyrazine] are 0.0027 µM and 0.387 µM.
With `Fc1cccc(Cn2cc(-c3c[nH]c4ncc(-c5ccncc5)nc34)cn2)c1` [I-11, 7-[1-(3-fluoro-benzyl)-1H-pyrazol-4-yl]-2-pyridin-4-yl-5H-pyrrolo[2,3-b]pyrazine], the IC50 in assay [1] came to 0.00277 µM; in assay [2] it was 0.501 µM.
On the same counts, the results for `Cc1[nH]ncc1-c1cnc2[nH]cc(-c3cnn(Cc4cccc5cccnc45)c3)c2n1` [I-15, 8-{4-[2-(5-methyl-1H-pyrazol-4-yl)-5H-pyrrolo[2,3-b]pyrazin-7-yl]-pyrazol-1-ylmethyl}-quinoline] are 0.014 µM and 0.651 µM.
On the same counts, the results for `Cc1n[nH]cc1-c1cnc2[nH]cc(-c3cnn(C(C)(C)c4ccccc4)c3)c2n1` [I-17, 7-[1-(1-methyl-1-phenyl-ethyl)-1H-pyrazol-4-yl]-2-(3-methyl-1H-pyrazol-4-yl)-5H-pyrrolo[2,3-b]pyrazine] are 0.036 µM and 2.3 µM.
As for `Cc1n[nH]cc1-c1cnc2[nH]cc(-c3cnn(CCc4ccc(C(F)(F)F)cc4)c3)c2n1` [I-18, 2-(3-methyl-1H-pyrazol-4-yl)-7-{1-[2-(4-trifluoromethyl-phenyl)-ethyl]-1H-pyrazol-4-yl}-5H-pyrrolo[2,3-b]pyrazine], the IC50 in assay [1] is 0.0444 µM; in assay [2], ≥ 50 µM.
On the same counts, the results for `c1ccc(Cn2cc(-c3c[nH]c4ncc(-c5ccncc5)nc34)cn2)cc1` [I-21, 7-(1-benzyl-1H-pyrazol-4-yl)-2-(pyridin-4-yl)-5H-pyrrolo[2,3-b]pyrazine] are 0.0069 µM and 1.3 µM.
On the same counts, the results for `Cc1[nH]ncc1-c1cnc2[nH]cc(-c3cnn(Cc4cc(F)ccc4Cl)c3)c2n1` [I-24, 7-[1-(2-chloro-5-fluoro-benzyl)-1H-pyrazol-4-yl]-2-(5-methyl-1H-pyrazol-4-yl)-5H-pyrrolo[2,3-b]pyrazine] are 0.00202 µM and 0.371 µM.
On the same counts, the results for `Cc1[nH]ncc1-c1cnc2[nH]cc(-c3cnn(C(C)c4ccccc4Cl)c3)c2n1` (centres unmarked) [I-25, 7-{1-[1-(2-chloro-phenyl)-ethyl]-1H-pyrazol-4-yl}-2-(5-methyl-1H-pyrazol-4-yl)-5H-pyrrolo[2,3-b]pyrazine] are 0.0022 µM and 0.2 µM.
On to `COc1cccc(F)c1Cn1cc(-c2c[nH]c3ncc(-c4cn[nH]c4C)nc23)cn1` [I-26], for which the figures for the half-inhibitory concentration (IC50) in assay [1] and in assay [2] were 0.0034 µM and 0.518 µM, respectively.
On the same counts, the results for `Cc1[nH]ncc1-c1cnc2[nH]cc(-c3cnn(Cc4cc(F)ccc4C#N)c3)c2n1` [I-27, 4-fluoro-2-{4-[2-(5-methyl-1H-pyrazol-4-yl)-5H-pyrrolo[2,3-b]pyrazin-7-yl]-pyrazol-1-ylmethyl}-benzonitrile] are 0.0248 µM and 2 µM.
The matching figures for `Cc1[nH]ncc1-c1cnc2[nH]cc(-c3ccc(OCCN4CCOCC4)nc3)c2n1` [II-2, 2-(5-methyl-1H-pyrazol-4-yl)-7-[6-(2-morpholin-4-yl-ethoxy)-pyridin-3-yl]-5H-pyrrolo[2,3-b]pyrazine]: 0.0301 µM and 5.7 µM.
Turning to `O=C(NCc1cncc(-c2c[nH]c3ncc(-c4cn[nH]c4)nc23)c1)c1ccc(F)cc1` [II-3, 4-fluoro-N-{5-[2-(1H-pyrazol-4-yl)-5H-pyrrolo[2,3-b]pyrazin-7-yl]-pyridin-3-ylmethyl}-benzamide], in assay [2], the IC50 was found to be 1.6 µM.
For `Cc1cc(C(=O)NCc2cncc(-c3c[nH]c4ncc(-c5cn[nH]c5)nc34)c2)no1` [II-4], the half-inhibitory concentration (IC50) is 0.198 µM in assay [1] and 3.7 µM in assay [2].
The matching figures for `Cc1nc(C(=O)NCc2cncc(-c3c[nH]c4ncc(-c5cn[nH]c5)nc34)c2)c(C)o1` [II-5, 2,5-dimethyl-oxazole-4-carboxylic acid {5-[2-(1H-pyrazol-4-yl)-5H-pyrrolo[2,3-b]pyrazin-7-yl]-pyridin-3-ylmethyl}-amide]: 0.218 µM and ≥ 50 µM.
The matching figures for `Cc1[nH]ncc1-c1cnc2[nH]cc(-c3ccc(NCc4ccccc4)nc3)c2n1` [II-7, benzyl-{5-[2-(5-methyl-1H-pyrazol-4-yl)-5H-pyrrolo[2,3-b]pyrazin-7-yl]-pyridin-2-yl}-amine]: 0.0299 µM and 5.7 µM.
